Structures can show the parent of a compound that is named as a salt.
What was measured:
[1] = system: negative lens-induced myopia; assay: Negative lens-induced myopia (LIM) model in guinea pigs: interocular difference in refraction; details: for efficacy (refraction) in comparison between groups: day 3 of administration; for efficacy (refraction) in comparison between groups / refraction indicators vs vehicle group: 0.4%, 100 µL daily; for refraction indicators vs vehicle group: after the end of the administration period (7 days)
From the text: (§1) Form-deprivation and lens-induced myopia models in guinea pigs are classic and recognized myopic animal models in the art, and may be used for evaluating efficacy and safety of myopia treatment drugs, and methods for establishing such models are well-known to those skilled in the art. For animal modeling and administration routes in the present application, reference is made to previously published scientific documents by the research group (Sen Zhang, Invest Ophthalmol Vis Sci. 2019 Jul 1; 60(8):3074-3083.; Miaozhen Pan, Exp Eye Res. 2021 Jan; 202:108332.).
After individuals with significant ocular diseases or abnormalities were eliminated from healthy 3-week-old tricolor guinea pigs (both males and females), by detecting refraction (using an infrared eccentric photorefraction device) and the eye axis (using A-scan ultrasonography), animals with refractive power between 3 diopters and 8.5 diopters (D), an interocular difference in refraction not exceeding 2 D, and both interocular differences in vitreous chamber depth and axial length not exceeding 0.05 mm were selected. These animals were randomly divided into the following 5 groups. • 1. Lens induction + vehicle control group (Control): monocular wear of a -4 D lens, with 100 µL of vehicle (DMSO:PEG300:Tween80:0.9% normal saline = 1:45:5:49) administrated to the lens-wearing eye daily for 1 week, and the number of samples = 11; • 2. Lens induction + R-alpha lipoic acid experimental group (R.ALA): monocular wear of a -4 D lens, with 100 µL of 0.4% R-alpha lipoic acid administrated to the lens-wearing eye daily for 1 week, and the number of samples = 15; • 3. Lens induction + S-alpha lipoic acid experimental group (S.ALA): monocular wear of a -4 D lens, with 100 µL of 0.4% S-alpha lipoic acid administrated to the lens-wearing eye daily for 1 week, and the number of samples = 13; • 4. Lens induction + dihydrolipoic acid experimental group (DHLA): monocular wear of a -4 D lens, with 100 µL of 0.4% dihydrolipoic acid administrated to the lens-wearing eye daily for 1 week, and the number of samples = 14; • 5.
Beginning on the day of modeling, the corresponding vehicle or drug was administrated to the experimental eye (lens-wearing eye) daily between 9:00 AM and 10:00 AM via periocular subconjunctival injection at an injection volume of 100 µL, once daily for 1 week. All procedures for negative lens-induced myopia modeling, peribulbar injection administration, detection of parameters such as refraction, and data processing for all the subjects were consistent with the schemes previously used by the research group (CN114796205B). At the beginning, on day 3, and at the end of the LIM model efficacy experiment, the refraction was detected in animal subjects. The statistical basis was the difference between the experimental eye (lens-wearing eye) and the contralateral eye of the same subject.

[2] = system: form-deprivation-induced myopia; details: mice with pigmentary degeneration of retina caused by a gene mutation (rd10); Landis et al. 2016; cited from earlier work
myopia [3] = details: wild-type mouse myopia models; cited from earlier work
[4] = system: negative lens-induced myopia; assay: Choroidal thickness (OCTA) in the LIM myopia model; assay type: in vivo, guinea pigs; details: after the 7-day administration experiment of Example 7; vs vehicle control group
Procedure: Using the animal subjects in Example 7, choroidal parameters were detected after completion of the experiment (a few animals died during the measurement due to reasons unrelated to the test drugs, so these samples were eliminated). Specifically, choroidal thickness was measured in the LIM myopia model animals after completion of the 7-day administration experiment. Commercially available OCTA (Spectralis HRA + OCT, OCTA, Heidelberg, Germany) modified to be more suitable for animal eyeballs was used to detect the choroidal thickness. Before detection, the guinea pigs were fully anesthetized.

form-deprivation myopia [5] = assay: Form-deprivation myopia model (FDM) in guinea pigs: interocular differences in refraction and eye axis parameters; details: for Difference in Refraction (Refraction, D) Mean / Difference in Axial Length (AL, mm) Mean / Difference in Vitreous Chamber Depth (VCD, mm) Mean: FD + 0.94% lipoic acid, experimental eye vs contralateral eye; for Difference in Refraction (Refraction, D) Mean: periocular subconjunctival injection 100 µL once daily; for Difference in Axial Length (AL, mm) Mean / Difference in Vitreous Chamber Depth (VCD, mm) Mean: subconjunctival injection once daily; for myopia inhibition rate: 0.94% lipoic acid compared to the vehicle control group
From the text: as §1
After individuals with significant eye diseases or abnormalities were eliminated from three-week-old tricolor guinea pigs, by detecting refraction (using an infrared eccentric photorefraction device) and the eye axis (using A-scan ultrasonography), animals with refractive power between 3 and 8 diopters (D), an interocular difference in refraction not exceeding 2 D, and interocular differences in vitreous chamber depth and axial length not exceeding 0.05 mm were selected. These animals were randomly divided into two groups: an FD + vehicle control group (1% DMSO + 49% PEG300 + 50% normal saline, by volume) and an FD + 0.94% lipoic acid drug treatment group. At 8:00 AM on day 1 of the experiment, form deprivation was induced in the guinea pigs using a mask method, where the right eye (experimental eye) was occluded and the left eye was left unoccluded (contralateral eye). The FD induction was maintained throughout the entire period of the lipoic acid efficacy experiment, with the hoods only briefly removed for drug administration or ocular examination (for example, refraction detection). Starting on the first day of the efficacy experiment, position of the hood was checked daily at 8:00 AM, 12:00 PM, and 7:00 PM, as well as prior to administration. Individuals with hoods fell off more than three times during the administration period were excluded. Beginning on the day of modeling, the corresponding vehicle or drug (lipoic acid formulation) was administrated to the experimental eye daily between 9:00 AM and 10:00 AM via periocular subconjunctival injection at an injection volume of 100 µL. The vehicle or drug was administrated once daily for two consecutive weeks. Interocular refraction and eye axis parameters of all subjects were measured at the start of the efficacy experiment, 1 week after administration, and after the final administration. All data collection and processing methods were the same as those previously published by the laboratory of the inventors (Pan M, Zhao F, Xie B, et al. Dietary omega-3 polyunsaturated fatty acids are protective for myopia. Proc Natl Acad Sci U S A 2021 Oct 26; 118(43):e2104689118). Statistical basis was the difference between the experimental eye and the contralateral eye in the same subject.
Utilizing the same efficacy evaluation system for myopia treatment in the guinea pig form-deprivation model as described in Example 2, the prevention and control effects of mexidol, pyridoxol, astaxanthin, and blueberry fruit extract on myopia were compared against lipoic acid. The administration route was periocular subconjunctival injection.
The same efficacy evaluation system for myopia treatment in the guinea pig form-deprivation model as described in Example 2 was utilized to evaluate the myopia treatment effects of blueberry fruit extract + lipoic acid compound formulations at different prescription ratios. The administration route was periocular subconjunctival injection.

presbyopia [6] = details: cited from earlier work
form-deprivation myopia [7] = assay: Choroidal thickness (OCT) in the guinea pig form-deprivation model; assay type: in vivo, guinea pigs
Procedure: Choroidal thickness of all animal subjects in Example 2 were detected using Spectralis HRA + OCT (Heidelberg Engineering, Heidelberg, Germany) for 30 minutes to 60 minutes after the final administration (of either the vehicle or lipoic acid).
After completion of the experiment, the choroidal thickness was detected in animals in the two control groups and the 0.5% lipoic acid choline ester eye drop administration group in Example 6 (some animals died during the measurement due to reasons unrelated to the test drugs, so the corresponding samples were eliminated).

presbyopia [8] = details: interim analysis, presbyopia treatment; cited from earlier work
[9] = system: age-related macular degeneration; details: oral administration; Kim et al. 2020; cited from earlier work
myopia [10] = details: higher concentration of atropine; cited from earlier work

For O=C(O)CCCC[C@H]1CCSS1 [S-alpha lipoic acid], the “efficacy (refraction) in comparison between groups” value [1] was “superior to that of the dihydrolipoic acid group”.

In the case of O=C1O[C@H]([C@@H](O)CO)C(O)=C1O [vitamin C, ascorbic acid], the form-deprivation-induced myopia [2] is given as “inhibit form-deprivation-induced myopia” and the “therapeutic effects on myopia” value (myopia [3]) is given as “failed to achieve therapeutic effects”.

For O=C(O)CCCC[C@@H](S)CCS (racemic) [dihydrolipoic acid, Dihydrolipoic acid], the “refraction indicators vs vehicle group” value [1] was “extremely significant differences compared with the vehicle group”, the “anterior chamber depth and lens thickness, FIG. 10” value ([1]; guinea pig, in vivo) was “did not affect the anterior chamber depth and lens thickness” and the ocular irritations ([1]; guinea pig, in vivo) was “neither the optical isomers of lipoic acid nor dihydrolipoic acid caused ocular irritations”. For the same compound, the “choroidal thickness, experimental eye vs contralateral eye, FIG. 13” value [4] was “could effectively inhibit the decrease in choroidal thickness”.

In the case of C[N+](C)(C)CCOC(=O)CCCC[C@@H]1CCSS1 [lipoic acid choline ester, R-alpha-Lipoic acid choline ester], the “axial elongation, FIG. 8-1 (B)” value (form-deprivation myopia [5]; Example 6, 0.5% LACE eye drops twice a day, 25 µL, vs vehicle) is reported as “significantly inhibit the axial elongation”, the “dose-effect relationship of myopia treatment effect” value (form-deprivation myopia [5]; Example 6, LACE eye drops 0.5% and 0.15%) is reported as “positively related dose-effect relationship” and the “progression of negative refraction, FIG. 8-1 (A)” value (form-deprivation myopia [5]; Example 6, direct eye drop instillation twice a day, 25 µL, 0.5% LACE, 0.05% atropine sulfate positive control, throughout the administration period, vs vehicle) is reported as “could significantly inhibit progression of negative refraction”. For the same compound, the “anterior chamber depth, lens thickness, corneal curvature, FIG. 8-2” value (form-deprivation myopia [5]; guinea pig, in vivo) was “no statistical differences”, the drug-induced mydriasis (form-deprivation myopia [5]; guinea pig, in vivo) was “did not observe drug-induced mydriasis” and the “ocular abnormalities or mydriasis” value (form-deprivation myopia [5]; guinea pig, in vivo) was “no ocular abnormalities or mydriasis were observed”. For the same compound, the bioavailability (presbyopia [6]; eye drops at a concentration of 1.5%) was “good bioavailability”, the safety (presbyopia [6]; in vivo) was “high safety” and the “thinning of the choroid (choroidal thickness), FIG. 12” value (form-deprivation myopia [7]; Example 9, 0.5% lipoic acid choline ester eye drops, after completion of Example 6, vs negative control group) was “could effectively inhibit thinning of the choroid”. For the same compound, the primary endpoint (presbyopia [8]) was “fails to meet the primary endpoint”.

For O=C(O)CCCCC1CCSS1 (stereo not drawn) [Lipoic acid, alpha-lipoic acid], the “Difference in Refraction (Refraction, D) Mean” value (from here on “Difference in Refraction”) (form-deprivation myopia [5]; 1 Week) was -2.2 D, the “Difference in Axial Length (AL, mm) Mean” value (form-deprivation myopia [5]; 1 Week) was 0.04364 mm and the “Difference in Vitreous Chamber Depth (VCD, mm) Mean” value (shortened to “Difference … (VCD, mm) Mean”) (form-deprivation myopia [5]; 1 Week) was 0.0009091 mm. For the same compound, the “Difference in Axial Length (AL, mm) Mean” value (form-deprivation myopia [5]; 1 Week, listed as lipoic acid) was 0.04364 + 0.03295 mm, the “Difference … (VCD, mm) Mean” value (form-deprivation myopia [5]; 1 Week, listed as lipoic acid) was 0.0009091 + 0.027 mm and the “Difference in Refraction” value (form-deprivation myopia [5]; 2 Weeks) was -4.673 D. For the same compound, the “Difference in Axial Length (AL, mm) Mean” value (form-deprivation myopia [5]; 2 Weeks) was 0.06364 mm, the “Difference … (VCD, mm) Mean” value (form-deprivation myopia [5]; 2 Weeks) was 0.08545 mm and the “Difference in Axial Length (AL, mm) Mean” value (form-deprivation myopia [5]; 2 Weeks, listed as lipoic acid) was 0.06364 ± 0.03722 mm. For the same compound, the “Difference … (VCD, mm) Mean” value (form-deprivation myopia [5]; 2 Weeks, listed as lipoic acid) was 0.08545 + 0.02067 mm, the “Difference in Refraction” value (form-deprivation myopia [5]; Baseline) was -0.04545 D and the “Difference in Axial Length (AL, mm) Mean” value (form-deprivation myopia [5]; Baseline) was -0.004545 mm. The “Difference … (VCD, mm) Mean” value (form-deprivation myopia [5]; Baseline) was 0.09273 mm, the “axial elongation and increase in vitreous chamber depth, FIG. 5” value (form-deprivation myopia [5]; Example 4, 0.3% R-alpha lipoic acid, subconjunctival injection, 1 and 2 weeks) was “could effectively inhibit the axial elongation and the increase in vitreous chamber depth” and the “refraction (interocular difference), FIG. 4” value (form-deprivation myopia [5]; Example 4, week 1 detection, 0.3% R-alpha lipoic acid (R-LA), periocular subconjunctival injection, compared with the other test drugs) was “optimal myopia treatment effect”. For the same compound, the “anterior chamber depth, lens thickness, corneal curvature” value (form-deprivation myopia [5]; guinea pig, in vivo) was “unaffected by the drug”, the “mydriatic effect (pupil diameter)” value (form-deprivation myopia [5]; guinea pig, in vivo) was “No mydriatic effect was observed” and the “toxic reactions, ocular irritations, significant ocular abnormalities” value (form-deprivation myopia [5]; guinea pig, in vivo) was “no any toxic reactions, ocular irritations, or significant ocular abnormalities were observed”. The myopia inhibition rate (form-deprivation myopia [5]; week 1 of treatment) was 42.4%, the myopia inhibition rate (form-deprivation myopia [5]; week 2 of treatment) was 21.1% and the “choroidal thickness, experimental eye vs contralateral eye” value (form-deprivation myopia [7]; animals of Example 2 (0.94% lipoic acid), 30 to 60 minutes after the final administration) was “could significantly inhibit the decrease in choroidal thickness in myopic eyes”. For the same compound, the “efficacy, clinical endpoint” value [9] was “did not reach a clinical endpoint”.

For CN1[C@@H]2CC[C@H]1C[C@@H](OC(=O)C(CO)c1ccccc1)C2 (stereo partly drawn) [atropine sulfate, Atropine sulfate, reference compound], the effect upon discontinuation (myopia [10]) is given as “rebound effect upon discontinuation” and the “choroidal thickness, experimental eye vs contralateral eye, FIG. 13” value [4] is given as “could effectively inhibit the decrease in choroidal thickness”.

In the case of O=C(O)CCCC[C@@H]1CCSS1 [R-alpha lipoic acid], the “refraction (interocular difference), FIG. 4” value (form-deprivation myopia [5]; Example 4, end of the administration period (2 weeks), subconjunctival injection, 0.05% atropine sulfate, 0.3% R-LA, 0.37% ES, 0.3% PH, 0.87% ASTA, 6% BFE, vs control) is reported as “significant myopia treatment effects”, the “refraction indicators vs vehicle group” value [1] is reported as “extremely significant differences compared with the vehicle group” and the “efficacy (refraction) in comparison between groups” value [1] is reported as “superior to that of the dihydrolipoic acid group”. For the same compound, the “choroidal thickness, experimental eye vs contralateral eye, FIG. 13” value [4] was “could more significantly increase the choroidal thickness”.
